Results from PMC4067310, “From Pan-Reactive KV7 Channel Opener to Subtype Selective Opener/Inhibitor by Addition of a Methyl Group” (PLoS ONE, 2014).
Read-outs that look alike come from different tables or passages of the source.

How the values were obtained:
KV7.2-W236L = target: T1, KV7.2-W236L (Homo sapiens, UniProt O43526, W236L); experiment: Two-electrode voltage-clamp of mutant KV7.2-W236L in Xenopus laevis oocytes; format: cell-based
T1 construct: expressed in transfected cells; host or cells: Xenopus laevis oocytes injected with cRNA (pGEM-HE vector)
T1 sequence (O43526 whole entry W236L): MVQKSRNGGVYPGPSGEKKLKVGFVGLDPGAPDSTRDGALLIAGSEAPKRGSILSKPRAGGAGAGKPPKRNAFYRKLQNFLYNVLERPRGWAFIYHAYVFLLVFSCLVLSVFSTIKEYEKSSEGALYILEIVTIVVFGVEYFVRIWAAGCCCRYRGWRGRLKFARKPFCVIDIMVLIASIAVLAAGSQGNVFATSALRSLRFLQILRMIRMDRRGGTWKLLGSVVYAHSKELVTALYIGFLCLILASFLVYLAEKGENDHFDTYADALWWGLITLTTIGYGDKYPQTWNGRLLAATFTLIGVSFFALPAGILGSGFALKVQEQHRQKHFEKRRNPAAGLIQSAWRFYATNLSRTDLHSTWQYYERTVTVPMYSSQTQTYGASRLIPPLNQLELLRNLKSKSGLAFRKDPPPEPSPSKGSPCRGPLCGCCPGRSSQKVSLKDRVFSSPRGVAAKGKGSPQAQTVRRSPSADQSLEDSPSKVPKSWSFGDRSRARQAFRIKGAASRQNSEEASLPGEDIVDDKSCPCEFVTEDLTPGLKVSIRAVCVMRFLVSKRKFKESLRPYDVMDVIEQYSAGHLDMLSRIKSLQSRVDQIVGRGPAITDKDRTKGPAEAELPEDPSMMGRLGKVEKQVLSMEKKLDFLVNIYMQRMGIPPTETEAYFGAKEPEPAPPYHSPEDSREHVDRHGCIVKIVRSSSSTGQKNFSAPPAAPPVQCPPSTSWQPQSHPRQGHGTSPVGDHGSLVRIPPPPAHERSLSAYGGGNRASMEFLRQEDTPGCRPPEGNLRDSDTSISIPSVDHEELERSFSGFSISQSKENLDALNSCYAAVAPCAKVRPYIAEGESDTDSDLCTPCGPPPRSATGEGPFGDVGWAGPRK
Procedure: (§1) Point mutations were introduced using mutated oligonucleotide extension (PfuTurbo Polymerase, Stratagene, La Jolla, CA, USA) from a plasmid template harboring the cDNA of interest, digested with DpnI (Fermentas, St. Leon-Roth, Germany) and transformed into E.coli XL1 Blue cells. The construct was verified by complete DNA sequencing of the cDNA insert. cRNA was prepared from linearized human wild-type (WT) and mutant KV7 channels in the pGEM-HE vector using the T7 m-Message Machine kit (Ambion, Austin, TX, USA) according to the manufacturer's instructions.
(§2) Extraction of Xenopus laevis oocytes and injection of cRNA was performed as described previously. Oocytes were kept in Modified Barth's Saline (in mM: 88 NaCl, 1 KCl, 2.4 NaHCO3, 0.41 CaCl2, 0.82 MgSO4, 0.3 Ca(NO3)2, 15 HEPES, pH 7.4 supplemented with 100 U/mL penicillin and 100 µg/mL streptomycin) at 18°C, and currents were recorded after 2-7 days. The care of Xenopus laevis and the oocyte extraction procedure were performed according to national guidelines and approved by the Danish Animal Experiments Inspectorate.
(§3) KV7 currents in Xenopus laevis oocytes were recorded using two-electrode voltage-clamp at room temperature in Ringer buffer (in mM: 115 NaCl, 2.5 KCl, 1.8 CaCl2, 0.1 MgCl2, 10 HEPES, pH 7.4) as described previously. Data was acquired using pCLAMP 10.2 software (Molecular Devices, CA, USA) and analyzed using pCLAMP 10.2 and GraphPad Prism 4.0 (GraphPad Software Inc., CA, USA). Currents were elicited from a holding potential of −80 mV by 5 s steps to potentials between −100 and +50 mV in 10 mV increments, followed by a 2 s step to −120 mV.
(§4) SMB-1 was dissolved in dimethyl sulfoxide (DMSO) to obtain a concentrated stock solution. On the day of experiments the stock solution was thawed and diluted in Ringer buffer to the final concentrations. A concentration of 10 µM SMB-1 was used unless indicated otherwise. The final DMSO concentration never exceeded 0.1%.
Current – voltage (I–V) relationship curves were generated by normalizing the steady-state peak current measured at potentials between −100 and +50 mV to the current measured at +50 mV in control recordings and plotting the values against the test potential.
The voltage-dependence of activation was determined from tail current analysis using the current measured immediately after the transient capacitive current after stepping to −120 mV from potentials between −100 mV and +50 mV. Data was normalized to extend from 0–1 and the tail current-voltage relationship was fitted to the Boltzmann equation: [drawing 1] (Equation\;1) where I max is the maximum tail current, I min is the minimum tail current, V0.5 is the potential for half maximal activation and k is the slope factor. A V0.5 was calculated for each individual experiment and statistical significance was estimated by paired two-tailed Student's t-test.
Activation kinetics for KV7.2 and KV7.2-W236L was determined by fitting the traces recorded at potentials between −40 and +40 mV to a double exponential function: [drawing 2] (Equation\;2) where I(t) is the current at time t, Ifast and Islow are the current amplitudes at infinite times, and τfast and τslow are the time constants of the fast and slow components, respectively.
For investigation of deactivation kinetics the tail current traces recorded at −120 mV when stepping from the channels' respective ∼V0.5 were fitted to a single exponential function (Eq. 3).

[1] = Free fraction by equilibrium dialysis, rat brain homogenate; format: in vitro ADME; conditions: equilibrium dialysis 37°C 5 h, mean ± S.E.M., n = 3
Procedure: (§5) The bidirectional permeability (Papp) of SMB-1 was examined in an MDCK cell system expressing human MDR1 [ABCB1, P-glycoprotein (P-gp)] as described previously. Permeation of the test compound from apical (A) to basal (B) direction or B to A direction was determined in triplicate over a 150-min incubation at 37°C. The efflux ratio was calculated as the ratio between Papp (B to A) and Papp (A to B). Free fraction of SMB-1 was determined using a standard equilibrium dialysis methodology with freshly isolated rat brain homogenate or plasma. Equilibrium dialysis was performed by incubating at 37°C for 5 h in triplicates.

[2] = Brain and plasma exposure in rats after subcutaneous administration; format: in vivo; conditions: male, Sprague-Dawley, sc, rat, 20 mg/kg s.c.; for concentration at 30 min / concentration at 120 min: n = 3, mean ± S.E.M
Procedure: Brain and plasma exposure of SMB-1 was evaluated in male Sprague-Dawley rats (225–250 g, Charles River Lab., UK). SMB-1 was administered subcutaneously in solution at a dose of 20 mg/kg in 25% solutol (dose volume 5 ml/kg) and exposure was assessed after 30 and 120 min (n = 3). Under isoflurane anesthesia, cardiac blood was obtained in EDTA-coated tubes and centrifuged for 10 min at 4°C, after which plasma was harvested. While still under anesthesia, the animal was decapitated, the brain was removed and brain homogenate was prepared by homogenizing the whole brain with 70% acetonitrile (1∶4 v/v) followed by centrifugation and collection of the supernatant. Concentrations of SMB-1 were determined using turboflow chromatography (dual column, focus mode; Thermo Fisher Scientific, Waltham, MA) followed by tandem mass spectrometry detection (Sciex API-3000 MS; Applied Biosystems, Foster City, CA). The limit of detection was 1 ng/ml in plasma and 5 ng/g in brain.

[3] = Free fraction by equilibrium dialysis, rat plasma; format: in vitro ADME; conditions: equilibrium dialysis 37°C 5 h, mean ± S.E.M., n = 3
Procedure: as §5

KV7.2-L299V = target: T2, KV7.2-L299V (Homo sapiens, UniProt O43526, L299V); experiment: Two-electrode voltage-clamp of mutant KV7.2-L299V in Xenopus laevis oocytes; format: cell-based; conditions: 10 µM SMB-1, +50 mV, n = 4; read-out: current amplitude, % of control
T2 construct: expressed in transfected cells; host or cells: Xenopus laevis oocytes injected with cRNA (pGEM-HE vector)
T2 sequence (O43526 whole entry L299V): as the sequence (O43526 whole entry W236L) above, with L236W, L299V counted along it
Procedure: as §1
as §2, with “The care of Xenopus laevis and the oocyte extraction procedure were performed according to national guidelines and approved by the Danish Animal Experiments Inspectorate.” left out
as §3, with “Currents were elicited from a holding potential of −80 mV by 5 s steps to potentials between −100 and +50 mV in 10 mV increments, followed by a 2 s step to −120 mV.” left out

[4] = Visual inspection of solution in Ringer buffer for precipitation; format: physicochemical
Procedure: as §4
To determine the potency of SMB-1 on KV7.2 the compound was tested at four concentrations (0.4, 2, 10 and 50 µM). […] The current amplitude in percentage of control at +50 mV was plotted against the logarithm of the concentration.

[5] = brain, read-out: Brain total concentration
[6] = plasma, read-out: Plasma total concentration

C[C@@H](c1ccc2c(c1)N(CC1CC1)CCO2)N(C)C(=O)/C=C/c1ccccc1F [SMB-1, (E)-N-[(S)-1-(4-Cyclopropylmethyl-3,4-dihydro-2H-1,4-benzoxazin-6-yl)-ethyl]-3-(2-fluoro-phenyl)-N-methyl-acrylamide]
effect on τact_fast (KV7.2-W236L; 10 µM): no significant effect
remaining activity at 10 µM (KV7.2-W236L; 10 µM SMB-1, +50 mV, n = 6, read-out: current amplitude, % of control): 68.8 ± 3.9%
effect on τact_slow (KV7.2-W236L; 10 µM, at potentials above −20 mV): significantly increased
τdeact, deactivation time constant in presence of compound (KV7.2-W236L; 10 µM, control 23.3±2.9 ms, n = 6, p<0.05): 27.0 ± 3.0 ms
V0.5, voltage-dependence of activation in presence of compound (KV7.2-W236L; 10 µM, control −27.1±2.4 mV, n = 4, p = 0.2): −15.0±10.1 mV
fraction unbound at 5 h [1]: 0.001 ± 0.001
concentration at 30 min [2, 5]: 0.55 ± 0.04 µM
concentration at 120 min [2, 5]: 0.44 ± 0.07 µM
Kp at 2 h ([2]; brain/plasma, 30 and 120 min, read-out: brain/plasma partition coefficient): 0.04 to 0.07
concentration at 30 min [2, 6]: 14 ± 1.5 µM
concentration at 120 min [2, 6]: 6.4 ± 0.7 µM
fraction unbound at 5 h [3]: 0.006 ± 0.004
remaining activity at 10 µM (KV7.2-L299V): 69.3 ± 5.6%
concentration above which the drug precipitated [4]: above 50 µM
